These results are taken from article PMC7126659 (Bioorganic & Medicinal Chemistry Letters, 2007).

Assay [1] deals with T1, ACE2 (Homo sapiens, UniProt Q9BYF1). In words: Directed screen of ACE2 versus a set of metalloprotease inhibitors. In kind it is biochemical. The settings on record: directed screen of GlaxoSmithKline metalloprotease inhibitor set.
In assay [2] the target is T1, ACE2. The settings on record: it has been reported; no reference given; cited from earlier work.

Each structure is given as a SMILES string.

T1 sequence (Q9BYF1 18-805): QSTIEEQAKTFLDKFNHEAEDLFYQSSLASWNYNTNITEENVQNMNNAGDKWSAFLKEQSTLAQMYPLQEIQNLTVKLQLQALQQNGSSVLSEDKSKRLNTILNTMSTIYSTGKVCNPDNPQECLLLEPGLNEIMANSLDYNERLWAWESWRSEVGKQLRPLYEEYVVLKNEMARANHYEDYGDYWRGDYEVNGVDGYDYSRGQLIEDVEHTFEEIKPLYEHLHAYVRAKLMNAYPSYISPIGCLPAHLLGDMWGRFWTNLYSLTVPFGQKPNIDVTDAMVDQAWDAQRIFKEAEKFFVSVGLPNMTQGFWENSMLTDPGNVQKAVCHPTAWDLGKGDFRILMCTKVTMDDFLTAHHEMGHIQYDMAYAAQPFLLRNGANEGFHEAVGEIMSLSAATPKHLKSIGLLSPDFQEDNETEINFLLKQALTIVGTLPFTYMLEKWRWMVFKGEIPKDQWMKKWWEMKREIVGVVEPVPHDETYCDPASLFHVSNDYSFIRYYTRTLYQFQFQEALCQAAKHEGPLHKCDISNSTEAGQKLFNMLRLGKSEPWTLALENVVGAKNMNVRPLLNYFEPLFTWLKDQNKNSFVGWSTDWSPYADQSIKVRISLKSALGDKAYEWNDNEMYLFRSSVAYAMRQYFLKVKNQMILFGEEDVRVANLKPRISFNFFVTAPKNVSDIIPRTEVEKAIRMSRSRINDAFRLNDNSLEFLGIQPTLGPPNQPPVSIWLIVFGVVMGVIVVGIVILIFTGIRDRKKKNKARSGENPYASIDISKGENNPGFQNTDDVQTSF

Consider `C[C@H](CS)C(=O)N1CCC[C@H]1C(=O)O` [captopril], for which the “activity in the ACE2 screen” value at ACE2 [1] was “inactive”. The “effect on ACE2 enzyme activity” value at ACE2 [2] is recorded as “do not attenuate ACE2 enzyme activity”. Turning to `NCCCC[C@H](N[C@@H](CCc1ccccc1)C(=O)O)C(=O)N1CCC[C@H]1C(=O)O` [lisinopril], on ACE2 [2], the “effect on ACE2 enzyme activity” value is “do not attenuate ACE2 enzyme activity”.
